Reference: US20180338980A1, “AROMATIC SULFONAMIDE DERIVATIVES” (BAYER PHARMA AKTIENGESELLSCHAFT, priority 2015, published 2018)
“Also recorded” adds a separate entry of the source.

What was measured:
mouse P2X4 receptors = target: T1, mouse P2X4 receptors (Mus musculus, UniProt Q9JJX6); assay: Assay B: mouse P2X4 receptor cell line, Fluo8 fluorescence FLIPR (agonist Bz-ATP at EC50); assay type: cell-based; details: HEK mouse P2X4 cell line, agonist Bz-ATP at EC50, average
T1 construct: host or cells: HEK 293 (recombinant, constitutively expressing)
T1 sequence (Q9JJX6 1-388): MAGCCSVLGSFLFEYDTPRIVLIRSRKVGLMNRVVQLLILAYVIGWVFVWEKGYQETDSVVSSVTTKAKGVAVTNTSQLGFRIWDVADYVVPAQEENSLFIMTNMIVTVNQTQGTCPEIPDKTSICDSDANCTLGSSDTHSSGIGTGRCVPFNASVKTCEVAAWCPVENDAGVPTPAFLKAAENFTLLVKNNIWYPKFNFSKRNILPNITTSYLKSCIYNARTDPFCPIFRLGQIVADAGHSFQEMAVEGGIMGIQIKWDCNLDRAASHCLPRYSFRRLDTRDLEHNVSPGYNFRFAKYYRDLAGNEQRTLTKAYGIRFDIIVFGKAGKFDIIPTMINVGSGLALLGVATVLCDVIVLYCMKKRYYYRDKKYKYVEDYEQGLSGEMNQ
Description: The identification of agonists and antagonists of the P2X4 receptor from humans and […] also the quantification of the activity of the compounds of the invention was performed by use of recombinant cell lines. […] The test cell lines constitutively express the mouse or human P2X4 receptors. Stimulation of the receptors with an agonist leads to a conformational change of P2X4 and influx of extracellular calcium ions through the ion channel. The cytoplasmatic calcium transient is detected via the calcium sensitive dye Fluo8 for the mouse P2×4 cell line or in case of the human P2×4 cell line a stably expressed calcium-sensitive photoprotein, mitochondrial photina, which, after reconstitution with the cofactor coelenterazine, emits light in dependence of calcium binding [Bovolenta S, Foti M, Lohmer S, Corazza S., J Biomol Screen. […] The strength of Fluo8 fluorescence signal or photina luminescence signal corresponds to the level of receptor activation. An inhibitor would decrease the signal depending on its potency and concentration.
On the day of the assay medium is exchanged by Fluo8 containing buffer for 30 minutes. In the fluorescence reader (FLIPR) test substances in various concentrations are added for 10 minutes. After baseline measurement the agonist Bz-ATP at EC50 concentration is applied and fluorescence is measured immediately.

P2X4 [1] = target: T2, P2X4 (Homo sapiens, UniProt Q99571); assay: Human whole blood assay (human WBA): IL-13 production after LPS priming and ATP stimulation; assay type: cell-based; parameters: from tissue; host or cells: human whole blood of healthy female volunteers; details: IL-13 in human whole blood, LPS 100 ng/ml 2 h then ATP 3 mM 1 h; total concentration
T2 sequence (Q99571 1-388): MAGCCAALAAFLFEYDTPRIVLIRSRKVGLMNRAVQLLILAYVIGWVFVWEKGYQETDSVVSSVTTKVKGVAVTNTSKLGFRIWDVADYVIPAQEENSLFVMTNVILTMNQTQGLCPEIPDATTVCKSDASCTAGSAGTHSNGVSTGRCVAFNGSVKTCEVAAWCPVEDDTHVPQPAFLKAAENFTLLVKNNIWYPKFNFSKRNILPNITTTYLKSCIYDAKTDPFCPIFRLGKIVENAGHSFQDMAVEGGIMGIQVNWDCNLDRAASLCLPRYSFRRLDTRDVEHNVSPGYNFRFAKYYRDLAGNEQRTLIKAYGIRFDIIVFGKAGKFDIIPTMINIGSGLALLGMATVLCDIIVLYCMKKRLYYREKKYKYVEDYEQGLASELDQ
Description: Human whole blood assay (human WBA) was prepared from the blood of healthy female volunteers. In this assay, the efficacy of P2X4 antagonists on the production of IL-13 in whole blood after ATP stimulation (3 mM for 1 h) following priming of the cells with lipopolysacaride (LPS, 100 ng/ml for 2 h) was evaluated. After incubation, supernatant was taken following centrifugation and the formation of IL-13 was assayed using standard ELISA kits. IC50 values were calculated using GraphPad PRISM program with nonlinear regression curve fit. Data are presented as total concentration.

P2X4 [2] = target: T2, P2X4; assay: Assay A: human P2X4 receptor cell line, FLIPR calcium assay (Fluo-8, agonist Bz-ATP at EC80); assay type: cell-based; parameters: host or cells: HEK 293 (recombinant, constitutively expressing; with mitochondrial photina in Assay B); details: HEK human P2X4 cells, Fluo-8 FLIPR; for IC50: Bz-ATP at EC80, average values; for Emax: percentage of maximal inhibition, read-out: human P2X4 Assay A avg Efficacy
How it was run: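 HEK cells expressing human P2X4 (20,000/well, plated ~20 h earlier) loaded 30 min with 5 μM Fluo-8 in HBSS/HEPES buffer with 1.8 mM CaCl2, 1 mM MgCl2, 2 mM probenecid, pH 7.4. Antagonist preincubated 30 min at room temperature (0.5% DMSO), then Bz-ATP at EC80. Peak fluorescence over 120 s, normalized to DMSO; triplicate IC50 and Hill fits.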

P2X4 [3] = target: T2, P2X4; assay: Assay B: human P2X4 receptor cell line, mitochondrial photina luminescence (agonist Bz-ATP at EC50); assay type: cell-based; parameters: host or cells: HEK 293 (recombinant, constitutively expressing; with mitochondrial photina in Assay B); details: HEK human P2X4 cell line, photina luminescence, agonist Bz-ATP at EC50, average; for Emax: read-out: human P2X4 Assay B avg Efficacy
How it was run: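 Recombinant cell line constitutively expressing human P2X4 and mitochondrial photina photoprotein, reconstituted with coelenterazine. Receptor stimulated with Bz-ATP at EC50; calcium influx read immediately as luminescence.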

c57bl/6 mice = assay: CFA inflammation model with pain read out (dynamic weight bearing); assay type: in vivo, mouse; details: 50 mg/kg oral on day 1 and day 2 post-CFA, 24-48 h after CFA
Description: Wild type female c57bl/6 mice (Taconic) received intraplantar injection of complete Freund's adjuvant (CFA) (30 μl, 1 mg/ml, Sigma) into the left hind paw under isoflurane anesthesia. […] Spontaneous pain-related behavior in freely moving animals was assessed using the automated dynamic weight bearing device (DWB, Bioseb, France) according to published and validated protocols (Robinson et al., 2012; Tetreault et al., 2011; Gruen et al. 2014). For behavioral testing, the animal was placed inside a Plexiglas chamber and allowed to move freely within the apparatus for a 5 min period, subsequently pain behavior is recorded for a test period of another 5 min.
(§1) Statistical analysis is performed with one-way analysis of variance, followed by Bonferroni's multiple comparison test vs. vehicle controls using the GraphPad PRISM software, *p<0.05, **p<0.01.

PGE2 levels = PGE2 levels after CFA-induced inflammation in mice (hind paw tissue, ELISA); assay type: in vivo, mouse; details: single oral dose 12.5, 25, 50 mg/kg, 48 h after CFA, 1 h after dose
Description: Female c57bl/6 mice (Taconic) received intraplantar injection of complete Freund's adjuvant (CFA) (30 μl, 1 mg/ml, Sigma) into the left hind paw under isoflurane anesthesia. […] At termination of the experiments (48 h after CFA, 1 h after dose), hind paw tissue is collected for analysis of PGE2 levels (ELISA, Cayman Chemical item no. 514531).
as §1

SMILES	IC50 (mouse P2X4 receptors)	mouse P2X4 Assay B avg Efficacy (mouse P2X4 receptors)	IC50 (P2X4 [1])	IC50 (P2X4 [2])	Emax (P2X4 [2])	IC50 (P2X4 [3])	Emax (P2X4 [3])	spontaneous pain behavior assessed by DWB after CFA-induced inflammation (c57bl/6 mice)	PGE2 levels in inflamed hind paw after CFA injection (PGE2 levels)
N#Cc1cccc(Oc2ccc(NC(=O)Cc3ccccc3Cl)cc2S(N)(=O)=O)c1 [Example 015, 2-(2-Chlorophenyl)-N-[4-(3-cyanophenoxy)-3-sulfamoylphenyl]acetamide]	149 nM	45%	2540 nM	58 nM	71%	25 nM	80%	–	–
N#Cc1ccc(COc2ccc(NC(=O)Cc3ccccc3Cl)cc2S(N)(=O)=O)cc1 [Example 138, 2-(2-Chlorophenyl)-N-{4-[(4-cyanobenzyl)oxy]-3-sulfamoylphenyl}acetamide]	9390 nM	41%	–	4 nM	67%	27 nM	56%	–	–
NS(=O)(=O)c1cc(NC(=O)Cc2ccccc2Cl)ccc1OCc1cccc(Cl)c1 [Example 139, N-{4-[(3-Chlorobenzyl)oxy]-3-sulfamoylphenyl}-2-(2-chlorophenyl)acetamide]	612 nM	52%	–	26 nM	82%	43 nM	63%	–	–
NS(=O)(=O)c1cc(NC(=O)Cc2ccccc2Cl)ccc1OCc1ccccc1 [Example 141, N-[4-(Benzyloxy)-3-sulfamoylphenyl]-2-(2-chlorophenyl)acetamide]	1130 nM	66%	–	–	96%	–	69%	–	–
NS(=O)(=O)c1cc(NC(=O)Cc2ccc(C(F)(F)F)cc2)ccc1OCc1ccccn1 [Example 152, N-[4-(Pyridin-2-ylmethoxy)-3-sulfamoylphenyl]-2-[4-(trifluoromethyl)phenyl]acetamide]	> 50000 nM	35%	–	> 25000 nM	47%	431 nM	89%	–	–
NS(=O)(=O)c1cc(NC(=O)Cc2ccccc2Cl)ccc1OCCc1cccc(Cl)c1 [Example 156, 2-(2-Chlorophenyl)-N-{4-[2-(3-chlorophenyl)ethoxy]-3-sulfamoylphenyl}acetamide]	> 50000 nM	25%	–	12 nM	81%	47 nM	58%	–	–
NS(=O)(=O)c1cc(NC(=O)Cc2ccccc2Cl)ccc1OCC1CCCC1 [Example 160, 2-(2-Chlorophenyl)-N-[4-(cyclopentylmethoxy)-3-sulfamoylphenyl]acetamide]	1030 nM	62%	–	10 nM	71%	40 nM	67%	–	–
NS(=O)(=O)c1cc(NC(=O)Cc2cc(F)ccc2Cl)ccc1OCC1CCOCC1 [Example 163, 2-(2-Chloro-5-fluorophenyl)-N-[3-sulfamoyl-4-(tetrahydro-2H-pyran-4-ylmethoxy)phenyl]acetamide]	3500 nM	65%	–	–	68%	–	61%	–	–
CN(C)C(=O)c1cccc(CC(=O)Nc2ccc(Oc3cccc(Cl)c3)c(S(N)(=O)=O)c2)c1 [Example 202, 3-(2-{[4-(3-Chlorophenoxy)-3-sulfamoylphenyl]amino}-2-oxoethyl)-N,N-dimethylbenzamide]	947 nM	60%	–	121 nM	72%	278 nM	83%	–	–
NS(=O)(=O)c1cc(NC(=O)Cc2ccccc2Cl)ccc1OC1CCOCC1 [Example 207, 2-(2-Chlorophenyl)-N-[3-sulfamoyl-4-(tetrahydro-2H-pyran-4-yloxy)phenyl]acetamide]	≥ 16000 nM	20%	–	473 nM	60%	100 nM	77%	–	–
COc1ccc(CC(=O)Nc2ccc(Oc3ccc(Cl)cc3)c(S(N)(=O)=O)c2)cc1 [Example 229, N-[4-(4-Chlorophenoxy)-3-sulfamoylphenyl]-2-(4-methoxyphenyl)acetamide]	–	–	30000 nM	472 nM	63%	78 nM	56%	–	–
NS(=O)(=O)c1cc(NC(=O)Cc2ccccc2Cl)ccc1OC1CCS(=O)(=O)C1 (centres unmarked) [Example 232, 2-(2-Chlorophenyl)-N-{4-[(1,1-dioxidotetrahydrothiophen-3-yl)oxy]-3-sulfamoylphenyl}acetamide]	3330 nM	61%	–	215 nM	57%	149 nM	49%	–	–
NS(=O)(=O)c1cc(NC(=O)Cc2ccccc2)ccc1Oc1cccc(Cl)c1 [Example 244, N-[4-(3-Chlorophenoxy)-3-sulfamoylphenyl]-2-phenylacetamide]	–	51%	–	–	–	–	–	significantly reduced spontaneous pain behavior	dose-dependently reduced PGE2 levels; also recorded: still in the range of PGE2 levels of PBS treated animals
